Assay results: US20250282720A1, “ALKYLSULFENYL THIOCARBONATES: PRECURSORS TO HYDROPERSULFIDES POTENTLY ATTENUATE OXIDATIVE STRESS” (The Johns Hopkins University, priority 2021, published 2025)

Tests used:
[1] = system: FA skin fibroblasts (GM04078); experiment: Cytotoxicity in FA skin fibroblasts; conditions: 24 h of exposure, at least up to 100 μM
Description: (§1) Initially, we measured the cytotoxicity of AST in FA skin fibroblasts (GM04078), obtained from the Coriell Institute, to ensure that the RSSH donor itself is not cytotoxic. […] We then measured the ability of AST to confer cytoprotection in FA fibroblasts against hydrogen peroxide (H2O2) stress.

[2] = system: FA fibroblasts (GM04078); experiment: Cytoprotection against H2O2 stress in FA fibroblasts, CCK8; assay type: cell-based, human; conditions: 4 h pretreatment, H2O2 75 μM for 4 h
Procedure: FIG. 10A, pretreatment of AST with varying concentrations in FA fibroblasts (GM04078, Coriell Institute) for 4 h followed by 4 h treatment with H2O2. Viability was measured using CCK8 assay. FIG. 10B, pretreatment of AST with varying concentrations in FA fibroblasts for 4 h followed by treatment with erastin for 24 h. […] Group comparisons are determined by a one-way analysis of variance (ANOVA) with Dunnet's correction post-hoc test using GraphPad Prism 8;
as §1

[3] = system: H9c2 cardiac myoblasts; experiment: Cytotoxicity study, Sytox Green viability assay; conditions: up to 100 mM, 24 h
Procedure: (§2) H9c2 embryonic rat heart myoblasts were obtained from the American Type Culture Collection. Cells were grown in Dulbecco's minimal essential medium (DMEM), supplemented with fetal bovine serum (FBS) 10%, penicillin 100 U/mL and streptomycin 100 μg/mL. They were propagated in T75-flasks, split before reaching 70-80% confluence (usually every day or every second day), and used within 11 passages. Cells were passaged to tissue culture treated 96-well microtiter plates at the specified density in 180 μL volumes and incubated for 24 h.
Cells were seeded at a density of 1×10^4 cells/well. After 24 h, the media was replaced and compound added in 20 μL volumes using DMSO:H2O (<0.01% DMSO) as the vehicle. Cells were incubated for an additional 24 h before media was removed. Then, 100 μL of media containing 3 μM Sytox Green nucleic acid stain (Invitrogen) was added and the cells were incubated for 2 h before fluorescence readings were obtained at 485Ex/538Em (Step 1). Finally, an additional 100 μL of media containing 3 μM Sytox and 0.2% Triton X-100 was added to permeabilize all cells and incubated for 1 h before fluorescence values measured (Step 2). The relative % cells surviving was calculated as a 100% minus the ratio of the fluorescence value of Step 1 over Step 2 (% cells surviving=100%−(FL538 (Step 1)/FL538 (Step 2)). See FIG. 8.

[4] = system: H9c2 cardiac myoblasts; experiment: H9c2 cell protection from H2O2-mediated oxidative stress, CCK-8; assay type: cell-based, rat; conditions: 50 μM, 4 and 8 h, then H2O2 200 μM
Procedure: The cytoprotective effects of 1a was then measured against oxidative stress.
as §2
Cells were seeded at a density of 5×10^3 cells/well. After 24 h, precursor 1a or by-product 4a was added at 20 μL volumes using DMSO:H2O (<0.01% DMSO as the vehicle). Cells were incubated for 2 h before media was removed and the cells gently washed with PBS (pH 7.4). Then, 180 μL of fresh media and 20 μL H2O2 diluted into H2O were added and cells were incubated for an additional 2 h. At the completion of H2O2 exposure, each well is carefully washed 3 times with PBS (pH 7.4) before adding 100 μL of media, without-FBS, containing 10% v/v CCK-8 (Dojindo) and incubated for 3 h prior to obtaining absorbance values at 450 nm. The relative % viability was calculated as 100 times the ratio of the Abs450 (pre-treated, H2O2-exposed) over Abs450 (vehicle-treated, non H2O2-exposed).

[5] = Decomposition of precursors in the presence of thiol (NAC / N-acetyl cysteine methyl ester), HPLC; assay type: physicochemical; conditions: 5 equiv NAC, PBS pH 7.4, HPLC
Procedure: Initially, the decomposition of 1a was analyzed in the presence of 5 equiv of N-acetylcysteine (NAC) in PBS (pH 7.4) by HPLC. […] To investigate the mechanism, this reaction was monitored by UPLC-MS. […] Additionally, a small amount of unsymmetrical dialkyl polysulfide (pink highlight, R^1SSnSR^2, n=0-3) is observed, likely formed via NAC reaction with symmetrical dialkyl polysulfides (Scheme 1-5, eq. 7). As expected, a new peak at 5.65 min corresponding to N-acetyl cysteine-thiocarbonate 9a also is observed, confirming thiol attack at the perthiocarbonate carbonyl carbon of 1a to release RSSH. Due to the unstable nature of RSSH under these experimental conditions, the yield of the by-product 9a was measured as an indication of RSSH yield. The observation of RSSH-derived polysulfides formation as major products led us to anticipate the efficient formation of by-product 9a. […] The lower observed yield of 9a is likely due to its further reaction with RSSH under these conditions. […]
To a solution of N-acetyl cysteine methyl ester (500 μM) in pH 7.4 phosphate buffer saline (100 mM) containing DTPA (100 μM), precursor 1a or 8 (100 μM) was added. […] At different time points, an aliquot of the reaction mixture (500 μL) was withdrawn and transferred to pre-cooled 0.1% formic acid (500 μL) and analyzed using HPLC. […]

SMILES	toxicity toward FA fibroblasts [1]	cytoprotection against H2O2 stress [2]	toxicity toward H9c2 cells [3]	cytoprotection against H2O2-mediated toxicity (by-product control) [4]	t1/2 of decomposition in the presence of thiol [5]
Oc1ccccc1 [Precursor 4a, phenol]	do not show toxicity	ineffective	no toxicity	no protective effect	–
COC(=O)C(NC(C)=O)C(C)(C)SSC(=O)OCc1ccccc1 (centres unmarked) [Precursor 8, Methyl 2-acetamido-3-(((benzyloxy)carbonyl)disulfaneyl)-3-methylbutanoate]	–	–	–	–	4.0 ± 0.7 min
